According to ChEMBL document CHEMBL3886544, “Substituted dialkyl(oxido)-lambda4-sulfanylidene nicotinamide derivatives as kinase inhibitors” (2016):

Columns and labels:
[1] = biological target: T1, Vascular endothelial growth factor receptor 2 (Homo sapiens, UniProt P35968); experiment: VEGFR2 Kinase Assay: Biochemical KDR kinase assays were performed in 96 well microtiter plates that were coated overnight with 75 ug/well of poly-Glu-Tyr (4:1) in 10 mM Phosphate Buffered Saline (PBS), pH 7.4. The coated plates were washed with 2 mls per well PBS+0.05% Tween-20 (PBS-T), blocked by incubation with PBS containing 1% BSA, then washed with 2 mls per well PBS-T prior to starting the reaction. Reactions were carried out in 100 uL reaction volumes containing 2.7 uM ATP in kinase buffer (50 mM Hepes buffer pH 7.4, 20 mM MgCl2, 0.1 mM MnCl2 and 0.2 mM Na3VO4). Test compounds were reconstituted in 100% DMSO and added to the reaction to give a final DMSO concentration of 5%. Reactions were initiated by the addition 20 ul per well of kinase buffer containing 200-300 ng purified cytoplasmic domain KDR protein (BPS Bioscience, San Diego, Calif.). Following a 15 minute incubation at 30° C., the reactions were washed 2 mls per well PBS-T. 100 ul of a monoclonal anti-phosphotyrosine antibody-peroxidase conjugate diluted 1:10,000 in PBS-T was added to the wells for 30 minutes. Following a 2 mls per well wash with PBS-Tween-20, 100 ul of 0-Phenylenediamine Dihydrochloride in phosphate-citrate buffer, containing urea hydrogen peroxide, was added to the wells for 7-10 minutes as a colorimetric substrate for the peroxidase. The reaction was terminated by the addition of 100 ul of 2.5N H2SO4 to each well and read using a microplate ELISA reader set at 492 nm.
[2] = biological target: T1, Vascular endothelial growth factor receptor 2; experiment: (§1) VEGFR2 Cellular Assay: Automated FLIPR (Fluorometric Imaging Plate Reader) technology was used to screen for inhibitors of VEGF induced increases in intracellular calcium levels in fluorescent dye loaded endothelial cells. HUVEC (human umbilical vein endothelial cells) (Clonetics) were seeded in 384-well fibronectin coated black-walled plates overnight @ 37° C./5% CO2. Cells were loaded with calcium indicator Fluo-4 for 45 minutes at 37° C. Cells were washed 2 times (Elx405, Biotek Instruments) to remove extracellular dye. For screening, cells were pre-incubated with test agents for 30 minutes, at a single concentration (10 uM) or at concentrations ranging from 0.0001 to 10.0 uM followed by VEGF165 stimulation (10 ng/mL). Changes in fluorescence at 516 nm were measured simultaneously in all 384 wells using a cooled CCD camera. Data were generated by determining max-min fluorescence levels for unstimulated, stimulated, and drug treated samples.; format: cell-based, Endothelial cell
[3] = biological target: T2, Platelet-derived growth factor receptor beta (Homo sapiens, UniProt P09619); experiment: as §1, with “PDGFRbeta : Automated” for “VEGFR2 Cellular Assay: Automated”, “of PDGF-induced” for “of VEGF induced”, “cells. NHDF-Ad (Normal Human Dermal Fibroblasts, Adult; Lonza)” for “cells. HUVEC (human umbilical vein endothelial cells) (Clonetics)”, “by PDGF-BB” for “by VEGF165”, “stimulation (30” for “stimulation (10”; format: cell-based, Endothelial cell
[4] = biological target: T2, Platelet-derived growth factor receptor beta; experiment: PDGFRbeta Kinase Assay: Biochemical PDGFRbeta kinase assays were performed in 96 well microtiter plates that were coated overnight with 75 ug of poly-Glu-Tyr (4:1) in 10 mM Phosphate Buffered Saline (PBS), pH 7.4. The coated plates were washed with 2 mls per well PBS+0.05% Tween-20 (PBS-T), blocked by incubation with PBS containing 1% BSA, then washed with 2 mls per wellPBS-T prior to starting the reaction. Reactions were carried out in 100 uL reaction volumes containing 36 uM ATP in kinase buffer (50 mM Hepes buffer pH 7.4, 20 mM MgCl2, 0.1 mM MnCl2 and 0.2 mM Na3VO4). Test compounds were reconstituted in 100% DMSO and added to the reaction to give a final DMSO concentration of 5%. Reactions were initiated by the addition 20 ul per well of kinase buffer containing 200-300 ng purified cytoplasmic domain PDGFR-b protein (Millipore). Following a 60 minute incubation at 30° C., the reactions were washed 2 mls per well PBS-T. 100 ul of a monoclonal anti-phosphotyrosine antibody-peroxidase conjugate diluted 1:10,000 in PBS-T was added to the wells for 30 minutes. Following a 2 mls per well wash with PBS-Tween-20, 100 ul of 0-Phenylenediamine Dihydrochloride in phosphate-citrate buffer, containing urea hydrogen peroxide, was added to the wells for 7-10 minutes as a colorimetric substrate for the peroxidase. […]

T1 sequence (P35968 whole entry): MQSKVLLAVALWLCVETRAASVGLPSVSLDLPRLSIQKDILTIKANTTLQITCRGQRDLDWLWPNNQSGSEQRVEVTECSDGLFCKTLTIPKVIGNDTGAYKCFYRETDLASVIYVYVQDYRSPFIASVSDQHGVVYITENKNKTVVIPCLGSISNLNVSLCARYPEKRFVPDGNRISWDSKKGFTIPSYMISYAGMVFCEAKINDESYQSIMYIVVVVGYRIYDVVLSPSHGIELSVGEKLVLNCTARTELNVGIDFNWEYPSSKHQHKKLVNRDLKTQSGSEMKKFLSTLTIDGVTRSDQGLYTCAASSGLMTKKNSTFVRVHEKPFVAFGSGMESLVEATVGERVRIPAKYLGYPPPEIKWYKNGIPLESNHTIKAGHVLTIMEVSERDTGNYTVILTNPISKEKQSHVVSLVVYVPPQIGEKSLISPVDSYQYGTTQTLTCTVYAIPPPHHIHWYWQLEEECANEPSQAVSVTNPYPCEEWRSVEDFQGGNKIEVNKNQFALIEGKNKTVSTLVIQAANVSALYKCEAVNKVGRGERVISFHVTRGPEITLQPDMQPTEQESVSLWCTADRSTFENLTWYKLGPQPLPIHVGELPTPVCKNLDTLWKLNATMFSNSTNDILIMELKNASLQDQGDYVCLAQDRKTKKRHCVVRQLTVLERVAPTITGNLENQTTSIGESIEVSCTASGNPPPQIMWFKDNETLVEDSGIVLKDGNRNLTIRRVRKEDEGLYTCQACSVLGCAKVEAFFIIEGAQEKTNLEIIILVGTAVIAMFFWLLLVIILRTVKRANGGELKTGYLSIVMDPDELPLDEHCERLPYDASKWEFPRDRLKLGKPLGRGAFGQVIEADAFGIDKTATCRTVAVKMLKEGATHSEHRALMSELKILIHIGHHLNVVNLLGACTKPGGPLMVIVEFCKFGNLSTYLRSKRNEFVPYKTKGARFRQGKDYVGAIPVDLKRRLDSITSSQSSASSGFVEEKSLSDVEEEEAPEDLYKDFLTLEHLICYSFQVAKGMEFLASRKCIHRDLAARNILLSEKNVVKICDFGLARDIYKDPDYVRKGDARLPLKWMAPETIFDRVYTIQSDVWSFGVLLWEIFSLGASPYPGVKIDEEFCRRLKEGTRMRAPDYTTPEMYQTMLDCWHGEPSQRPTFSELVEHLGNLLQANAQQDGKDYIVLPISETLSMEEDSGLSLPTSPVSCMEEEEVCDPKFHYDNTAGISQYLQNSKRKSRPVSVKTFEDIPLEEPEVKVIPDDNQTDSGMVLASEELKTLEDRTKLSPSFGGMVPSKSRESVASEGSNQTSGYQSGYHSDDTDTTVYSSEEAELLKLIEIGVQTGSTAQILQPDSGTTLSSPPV
T2 sequence (P09619 whole entry): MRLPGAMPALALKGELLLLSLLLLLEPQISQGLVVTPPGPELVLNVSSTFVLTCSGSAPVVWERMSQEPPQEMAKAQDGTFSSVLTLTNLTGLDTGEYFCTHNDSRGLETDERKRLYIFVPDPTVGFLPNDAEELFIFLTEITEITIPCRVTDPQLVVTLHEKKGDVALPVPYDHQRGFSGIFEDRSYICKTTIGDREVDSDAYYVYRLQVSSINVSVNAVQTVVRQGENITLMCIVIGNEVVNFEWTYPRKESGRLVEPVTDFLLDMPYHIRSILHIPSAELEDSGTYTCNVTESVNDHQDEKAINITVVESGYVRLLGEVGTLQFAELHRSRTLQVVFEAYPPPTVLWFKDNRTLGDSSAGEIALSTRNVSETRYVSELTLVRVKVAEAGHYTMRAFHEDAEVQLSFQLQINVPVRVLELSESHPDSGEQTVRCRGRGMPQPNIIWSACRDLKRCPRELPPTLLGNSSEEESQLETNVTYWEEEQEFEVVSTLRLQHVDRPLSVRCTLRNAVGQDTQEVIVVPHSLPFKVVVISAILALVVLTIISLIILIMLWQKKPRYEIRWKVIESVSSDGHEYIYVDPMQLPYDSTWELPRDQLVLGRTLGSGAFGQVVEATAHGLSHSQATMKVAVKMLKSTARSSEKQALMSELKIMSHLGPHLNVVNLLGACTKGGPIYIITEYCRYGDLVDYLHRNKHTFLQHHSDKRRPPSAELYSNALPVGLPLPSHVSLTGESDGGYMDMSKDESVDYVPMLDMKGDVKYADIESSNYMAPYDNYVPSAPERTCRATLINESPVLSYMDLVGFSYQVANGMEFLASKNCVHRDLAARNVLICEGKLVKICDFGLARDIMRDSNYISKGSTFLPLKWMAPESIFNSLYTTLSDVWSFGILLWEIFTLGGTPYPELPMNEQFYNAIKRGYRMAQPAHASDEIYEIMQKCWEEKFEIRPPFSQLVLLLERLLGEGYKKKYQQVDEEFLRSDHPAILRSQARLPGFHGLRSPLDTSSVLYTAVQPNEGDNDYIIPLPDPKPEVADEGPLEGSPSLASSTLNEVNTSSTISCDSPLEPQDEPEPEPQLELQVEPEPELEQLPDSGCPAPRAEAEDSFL

IC50 [1] [nM] | IC50 [2] [nM] | IC50 [3] [nM] | IC50 [4] [nM] | Structure (SMILES)
9 | 10 |  |  | Cc1ccoc1C(=O)Nc1cccc(C#Cc2cncc(C(=O)N=S(C)(=O)CCCN3CCN(CCOCCO)CC3)c2)c1 (stereo not drawn)
3 |  |  |  | Cc1ccoc1C(=O)Nc1cccc(C#Cc2cc(C(=O)N=S(C)(=O)CC(=O)N3CC[C@H](O)C3)cnc2N)c1 (stereo partly drawn)
14 | 1 | 31 |  | Cc1ccoc1C(=O)Nc1cccc(C#Cc2cncc(C(=O)N=S(C)(=O)CCCO)c2)c1 (stereo not drawn)
3 |  |  | 18 | Cc1ccoc1C(=O)Nc1cccc(C#Cc2cncc(C(=O)N=[S@@](C)(=O)CCCO)c2)c1
